According to patent publication US20070224674A1, “Selective Enrichiment of Microorganisms for Desired Metabolic Properties” (COMMONWEALTH SCIENTIFIC AND INDUSTRIAL RESEARCH OR, priority 2003, published 2007):

Columns and labels:
[1] = tested on: E. coli; assay: Growth on glucose and benzyl alcohol in defined medium, batch culture; format: cell-based, Escherichia coli BL21DE3
Procedure: (§1) For these control experiments a steady state culture of an Escherichia coli BL21DE3 which was supplied by Novagen (Novagen Inc., Madison, Wis., USA) and was expected to grow on glucose only was used. The culture was established using 5 ml of an E. coli culture taken from a 100 ml shake flask culture which had been grown for 17 hours shaking at 200 rpm and 30° C. in defined medium with 1.0 g l^−1 glucose as the carbon source. Although the feed contained another substrate (benzyl alcohol), no growth on this substrate was expected because this microbial population was known to be unable to use this carbon source for growth. When steady state had been established, 10 mL of a 100 mL shake flask culture of Pseudomonas putida F1 was added. The P. putida F1 culture had been grown at 30° C. for 17 hours, with shaking at 200 rpm, in defined medium with 1.0 g l^−1 glucose as the carbon source. The P. putida F1 was supplied by the American Type Culture Collection (ATCC) and was expected to grow on benzyl alcohol and/or glucose. The OUR was expected to change as a result of the increased microbial activity after the addition of P. putida.
(§2) The success of this control experiment was dependent upon the ability of E. coli to grow on glucose in DM and grow in DM in the presence of benzyl alcohol (i.e. benzyl alcohol is not toxic to E. coli). Also of key importance was the inability of E. coli to grow on benzyl alcohol. […] Although P. putida is well known for its ability to grow on a wide range of aromatic substrates (Wackett, & Hershberger, 2001), growth on benzyl alcohol has not been reported. The optical density at inoculation was calculated (based upon the optical density on the inocula) as 0.021 (E. coli) and 0.026 (P. putida). The cultures were incubated shaking at 200 rpm and 30° C. The optical density was measured at 600 nm after incubation for 23.5 and 75 hours.

[2] = tested on: P. putida; assay: as above; format: cell-based, Pseudomonas putida F1
Procedure: as §1, §2

[3] = tested on: E. coli and P. putida continuous culture; assay: Continuous culture population shift, residual substrate by gas chromatography; format: cell-based, Escherichia coli BL21DE3, Pseudomonas putida F1; settings: when BOD stabilised after addition of P. putida; feed 1.0 g l^−1 benzyl alcohol and 0.5 g l^−1 glucose, 30 ml h^−1
Procedure: Based on the BOD it was clear that steady state had been attained (it is generally assumed that steady state has been established after turnover of at least three vessel volumes which, in this example would occur after 37.5 hours). After 125.7 hours (equivalent to 10 vessel volumes) of continuous operation, P. putida was added to the culture. Initially, there was no change in the BOD so to ensure P. putida was not being washed out of the vessel the feed flow rate was reduced from 60 ml h^−1 to 30 ml h^−1. […] This observation was confirmed by measuring the residual benzyl alcohol in the culture supernatant, which had started to decrease. As the P. putida population developed the BOD increased, peaking initially at nearly 1400 mg l^−1 before declining to 1050 mg l^−1 after which a second peak in the BOD was observed. […] After the second BOD peak, the BOD stabilised at 1040 mg l^−1 which was the expected BOD for a feed containing 0.5 g l^−1 glucose and 1.0 g l^−1 benzyl alcohol (see calculation below).
The feed consisting of DM containing 0.5 g l^−1 glucose and 1.0 g l^−1 benzyl alcohol was fed into a vessel at 30° C. and pH 7. The feed flow rate was initially 60 ml h^−1. […] At the same time that the BOD stabilised the measured residual benzyl alcohol concentration was zero. […]

[4] = tested on: 1,3-propanediol-degrading microbial population (activated sludge); assay: Enrichment of activated sludge on 1,3-propanediol, growth from BOD; format: cell-based
Procedure: Isolation of 1,3-propanediol-degrading microorganisms was used to test the feedback loop between feed flow rate and OUR. The feed medium was a defined medium designated 461S (Appendix I) which contained 1.0 g l^−1 1,3-propanediol and the initial flow rate was 43.5 ml h^−1. The operating temperature was 30° C. and pH 7.0. The medium was inoculated with ˜700 ml of activated sludge. The feed flow rate was increased by 20 ml h^−1 if the BOD remained constant for four vessel volumes. After an initial peak in the BOD, which was due to 1,3-propanediol being in excess, the BOD remained constant over a range of flow rates. […] This observation was expected because the inferred μmax of the population from the initial peak in BOD at the start of the experiment was ˜0.25 h^−1 (a doubling time of 2.8 hours). […] could be achieved with any microbial population that is established in the culture because there is a good probability that mutants which can grow at a higher rate will be selected at high feed flow rates.

[5] = tested on: Isolate 2A; assay: 1-methyl-2-pyrrolidinone degradation in liquid batch culture; format: cell-based; settings: for Residual 1-methyl-2-pyrrolidinone concentration: 1.0 g l^−1 added
Procedure: (§3) The ability of the pure isolates to grow on 1-methyl-2-pyrrolidinone as the sole source of carbon in liquid culture was also evaluated (Table 3). The cultures were grown in 50 ml screw-capped plastic tubes that contained 10 ml of defined medium and 1.0 g l^−1 1-methyl-2-pyrrolidinone. To ensure each culture was inoculated with a consistent number of cells, 10 ml of medium was seeded with 100 μl of a single colony that had been resuspended in 1 ml of DM. The cultures were incubated at 30° C. shaking at 190 rpm. A single 10 ml culture was harvested by centrifugation at each time point and the supernatant kept for determination of the 1-methyl-2-pyrrolidinone concentration. The 1-methyl-2-pyrrolidinone concentrations were estimated using gas chromatography

[6] = tested on: Isolate 2B; assay: as above; format: cell-based; settings: for Residual 1-methyl-2-pyrrolidinone concentration: 1.0 g l^−1 added
Procedure: as §3

[7] = tested on: microorganisms from activated sludge; assay: Enrichment of activated sludge on 1-methyl-2-pyrrolidinone, growth from BOD; format: cell-based; settings: 30° C., pH 7.0
Procedure: Fresh activated sludge sourced from a wastewater treatment facility was used as the source of microorganisms for enrichment of 1-methyl-2-pyrrolidinone-utilising microbes. […] The enrichment process was performed at 30° C. and pH 7.0 (the pH was maintained at 7.0 by the automatic addition of a potassium hydroxide or hydrochloric acid solution as the alkali and acid, respectively). The feed flow rate was 60 ml h^−1.
After the addition of the activated sludge to a vessel the BOD was high (greater than 500 mg l^−1). […] After 2 ml of 1-methyl-2-pyrrolidinone was added to the vessel (Arrow A; FIG. 8) a rapid rise in BOD was observed indicating exponential growth (FIG. 8). […] Growth is exponential between 1220 and 1460 minutes and μmax can therefore be calculated as 0.52 h^−1, which corresponds to a doubling time of 1.34 hours. The rapid decline in BOD (Arrow B, FIG. 8) was due to the oxygen consumption of the microbial population being greater than the amount of oxygen supplied to the culture.

[8] = stated in words; cited from earlier work
[9] = tested on: Isolate 1B; assay: Dodecane degradation in liquid batch culture; format: cell-based; settings: for Residual dodecane concentration: 0.75 g l^−1 added
Procedure: (§4) The ability of the pure isolates to grow on dodecane as the sole source of carbon in liquid culture was also evaluated and is shown in Table 5. The cultures were grown in 50 ml screw-capped plastic tubes that contained 10 ml of defined medium and 0.75 g l^−1 dodecane. To ensure each culture was inoculated with a consistent number of cells, 10 ml of medium was inoculated with 100 μl of a single colony that had been resuspended in 1 ml of DM. The cultures were incubated at 30° C. shaking at 190 rpm. Residual dodecane was extracted by the addition of 20 ml of hexane to a single 10 ml culture at each time point. The tube was shaken vigorously for one minute and after phase separation, the upper layer was kept for determination of the dodecane concentration. The dodecane concentrations were estimated using gas chromatography.

[10] = tested on: Isolate 1C; assay: Dodecane degradation in liquid batch culture; format: cell-based; settings: for Residual dodecane concentration: 0.75 g l^−1 added
Procedure: as §4

[11] = tested on: Isolate 1D; assay: Dodecane degradation in liquid batch culture; format: cell-based; settings: for Residual dodecane concentration: 0.75 g l^−1 added
Procedure: as §4

[12] = benzyl alcohol 1.0 g l^−1 only carbon source, 23.5 hours
[13] = benzyl alcohol 1.0 g l^−1 only carbon source, 75 hours
[14] = benzyl alcohol 1.0 g l^−1 with glucose 0.1 g l^−1, 23.5 hours
[15] = benzyl alcohol 1.0 g l^−1 with glucose 0.1 g l^−1, 75 hours
[16] = glucose 0.1 g l^−1 only carbon source, 23.5 hours incubation, 30° C.
[17] = glucose 0.1 g l^−1 only carbon source, 75 hours incubation, 30° C.
[18] = batch culture, over a 168 hours period

OCc1ccccc1 [Benzyl alcohol, benzyl alcohol]
Optical density at 600 nm [1, 12]: 0.027
Optical density at 600 nm [1, 13]: 0.024
Optical density at 600 nm [1, 14]: 0.102
Optical density at 600 nm [1, 15]: 0.097
Optical density at 600 nm [2, 12]: 0.021
Optical density at 600 nm [2, 13]: 0.417
Optical density at 600 nm [2, 14]: 0.042
Optical density at 600 nm [2, 15]: 0.353
Residual benzyl alcohol concentration [3]: zero

O=C[C@H](O)[C@@H](O)[C@H](O)[C@H](O)CO [Glucose, glucose]
Optical density at 600 nm [1, 16]: 0.116
Optical density at 600 nm [1, 17]: 0.102
Optical density at 600 nm [2, 16]: 0.170
Optical density at 600 nm [2, 17]: 0.138

OCCCO [1,3-propanediol]
Doubling time ([4]; corresponds to inferred μmax): 2.8 h
Inferred μmax of the population ([4]; from the initial peak in BOD, 1.0 g l^−1 in feed, 30° C., pH 7.0): ~0.25 h⁻¹

CN1CCCC1=O [1-methyl-2-pyrrolidinone]
Residual 1-methyl-2-pyrrolidinone concentration ([5]; 24 h after inoculation): NDa (Not detected (limit of detection · 20 mg l^−1))
Residual 1-methyl-2-pyrrolidinone concentration ([5]; 48 h after inoculation): ND (Not detected (limit of detection · 20 mg l^−1))
Residual 1-methyl-2-pyrrolidinone concentration ([5]; 72 h after inoculation): ND (Not detected (limit of detection · 20 mg l^−1))
Residual 1-methyl-2-pyrrolidinone concentration ([5]; 96 h after inoculation): ND (Not detected (limit of detection · 20 mg l^−1))
Residual 1-methyl-2-pyrrolidinone concentration ([5]; 168 h after inoculation): ND (Not detected (limit of detection · 20 mg l^−1))
Time to completely degrade 1.0 g l^−1 1-methyl-2-pyrrolidinone ([5]; batch culture): ≤ 24 h
Residual 1-methyl-2-pyrrolidinone concentration ([6]; 24 h after inoculation): ND (Not detected (limit of detection · 20 mg l^−1))
Residual 1-methyl-2-pyrrolidinone concentration ([6]; 48 h after inoculation): ND (Not detected (limit of detection · 20 mg l^−1))
Residual 1-methyl-2-pyrrolidinone concentration ([6]; 72 h after inoculation): ND (Not detected (limit of detection · 20 mg l^−1))
Residual 1-methyl-2-pyrrolidinone concentration ([6]; 96 h after inoculation): ND (Not detected (limit of detection · 20 mg l^−1))
Residual 1-methyl-2-pyrrolidinone concentration ([6]; 168 h after inoculation): ND (Not detected (limit of detection · 20 mg l^−1))
Time to completely degrade 1.0 g l^−1 1-methyl-2-pyrrolidinone ([6]; batch culture): ≤ 24 h
μmax of the population growing on the substrate ([7]; calculated from exponential BOD rise between 1220 and 1460 minutes): 0.52 h⁻¹
Doubling time ([7]; corresponds to μmax): 1.34 h
Solubility in water [8]: soluble in water

CCCCCCCCCCCC [dodecane]
Residual dodecane concentration ([9]; 24 h after inoculation): 920 mg/L
Residual dodecane concentration ([9]; 48 h after inoculation): 160 mg/L
Residual dodecane concentration ([9]; 72 h after inoculation): 420 mg/L
Residual dodecane concentration ([9]; 96 h after inoculation): 270 mg/L
Residual dodecane concentration ([9]; 168 h after inoculation): 290 mg/L
Dodecane added to the culture that was used [9, 18]: 50 to 60%
Residual dodecane concentration ([10]; 24 h after inoculation): 630 mg/L
Residual dodecane concentration ([10]; 48 h after inoculation): 620 mg/L
Residual dodecane concentration ([10]; 72 h after inoculation): 440 mg/L
Residual dodecane concentration ([10]; 96 h after inoculation): 440 mg/L
Residual dodecane concentration ([10]; 168 h after inoculation): 280 mg/L
Dodecane added to the culture that was used [10, 18]: 50 to 60%
Residual dodecane concentration ([11]; 24 h after inoculation): 1080 mg/L
Residual dodecane concentration ([11]; 48 h after inoculation): 920 mg/L
Residual dodecane concentration ([11]; 72 h after inoculation): 740 mg/L
Residual dodecane concentration ([11]; 96 h after inoculation): 410 mg/L
Residual dodecane concentration ([11]; 168 h after inoculation): 310 mg/L
Dodecane added to the culture that was used [11, 18]: 50 to 60%
Solubility in water [8]: practically insoluble in water
